Reference: the NIST ThermoML archive (doi:10.1021/je900482x)

Assay: isobaric coefficient of expansion
Details: Liquid, Microcalorimeter

CCCCCC[n+]1ccn(C)c1.O=S(=O)([N-]S(=O)(=O)C(F)(F)F)C(F)(F)F
isobaric coefficient of expansion
Details	5000 kPa	10000 kPa	15000 kPa	20000 kPa	25000 kPa	30000 kPa	35000 kPa	40000 kPa	45000 kPa	50000 kPa
278.15 K	0.000674 1/K	0.000662 1/K	0.000654 1/K	0.000641 1/K	0.000635 1/K	0.000628 1/K	0.000619 1/K	0.000612 1/K	0.000602 1/K	0.000596 1/K
288.15 K	0.000668 1/K	0.000658 1/K	0.000647 1/K	0.000637 1/K	0.00063 1/K	0.00062 1/K	0.000614 1/K	0.000604 1/K	0.000597 1/K	0.000592 1/K
298.15 K	0.000664 1/K	0.000654 1/K	0.000643 1/K	0.000633 1/K	0.000626 1/K	0.000615 1/K	0.000605 1/K	0.000596 1/K	0.00059 1/K	0.000584 1/K
308.15 K	0.000659 1/K	0.000648 1/K	0.000637 1/K	0.000628 1/K	0.000618 1/K	0.000609 1/K	0.0006 1/K	0.000594 1/K	0.000585 1/K	0.000577 1/K
318.15 K	0.000654 1/K	0.000647 1/K	0.000637 1/K	0.000623 1/K	0.000615 1/K	0.000606 1/K	0.000597 1/K	0.000588 1/K	0.000578 1/K	0.000571 1/K
328.15 K	0.00065 1/K	0.000639 1/K	0.000632 1/K	0.000621 1/K	0.000609 1/K	0.000599 1/K	0.000591 1/K	0.000582 1/K	0.000574 1/K	0.000567 1/K
338.15 K	0.000649 1/K	0.000637 1/K	0.000627 1/K	0.000616 1/K	0.000605 1/K	0.000597 1/K	0.000588 1/K	0.00058 1/K	0.000571 1/K	0.000567 1/K
348.15 K	0.000644 1/K	0.000635 1/K	0.000623 1/K	0.00061 1/K	0.000602 1/K	0.000592 1/K	0.000584 1/K	0.000575 1/K	0.000567 1/K	0.000559 1/K

CCCC[n+]1cccc(C)c1.F[B-](F)(F)F [1-butyl-3-methylpyridinium tetrafluoroborate]
isobaric coefficient of expansion
Details	5000 kPa	10000 kPa	15000 kPa	20000 kPa	25000 kPa	30000 kPa	35000 kPa	40000 kPa	45000 kPa	50000 kPa
278.15 K	0.000607 1/K	0.000601 1/K	0.000596 1/K	0.000591 1/K	0.000584 1/K	0.000581 1/K	0.000576 1/K	0.00057 1/K	0.000566 1/K	0.00056 1/K
288.15 K	0.0006 1/K	0.000593 1/K	0.000588 1/K	0.000585 1/K	0.000581 1/K	0.000575 1/K	0.000569 1/K	0.000564 1/K	0.000562 1/K	0.000558 1/K
298.15 K	0.000594 1/K	0.000589 1/K	0.000582 1/K	0.000577 1/K	0.000572 1/K	0.000566 1/K	0.00056 1/K	0.000556 1/K	0.000551 1/K	0.000549 1/K
308.15 K	0.000588 1/K	0.000582 1/K	0.000576 1/K	0.000569 1/K	0.000563 1/K	0.00056 1/K	0.000555 1/K	0.000551 1/K	0.000545 1/K	0.000541 1/K
318.15 K	0.00058 1/K	0.000578 1/K	0.000573 1/K	0.000565 1/K	0.00056 1/K	0.000554 1/K	0.000551 1/K	0.000545 1/K	0.000539 1/K	0.000535 1/K
328.15 K	0.000575 1/K	0.00057 1/K	0.000568 1/K	0.00056 1/K	0.000554 1/K	0.000549 1/K	0.000545 1/K	0.000539 1/K	0.000535 1/K	0.000531 1/K
338.15 K	0.000571 1/K	0.000567 1/K	0.000562 1/K	0.000554 1/K	0.000549 1/K	0.000545 1/K	0.000539 1/K	0.000536 1/K	0.00053 1/K	0.000529 1/K
348.15 K	0.000568 1/K	0.000562 1/K	0.000557 1/K	0.000554 1/K	0.000548 1/K	0.000542 1/K	0.00054 1/K	0.000534 1/K	0.000529 1/K	0.000526 1/K

CCn1cc[n+](C)c1.F[B-](F)(F)F [1-ethyl-3-methylimidazolium tetrafluoroborate]
isobaric coefficient of expansion
Details	5000 kPa	10000 kPa	15000 kPa	20000 kPa	25000 kPa	30000 kPa	35000 kPa	40000 kPa	45000 kPa	50000 kPa
278.15 K	0.000613 1/K	0.000605 1/K	0.000596 1/K	0.000591 1/K	0.000585 1/K	0.00058 1/K	0.000574 1/K	0.000567 1/K	0.00056 1/K	0.000555 1/K
288.15 K	0.000614 1/K	0.000602 1/K	0.000591 1/K	0.000587 1/K	0.000581 1/K	0.000574 1/K	0.000569 1/K	0.000561 1/K	0.000556 1/K	0.000554 1/K
298.15 K	0.000601 1/K	0.000596 1/K	0.000587 1/K	0.00058 1/K	0.000575 1/K	0.000568 1/K	0.000561 1/K	0.000554 1/K	0.000549 1/K	0.000545 1/K
308.15 K	0.000597 1/K	0.000589 1/K	0.000581 1/K	0.000573 1/K	0.000566 1/K	0.000561 1/K	0.000554 1/K	0.00055 1/K	0.000542 1/K	0.000537 1/K
318.15 K	0.000589 1/K	0.000585 1/K	0.000576 1/K	0.000569 1/K	0.000563 1/K	0.000556 1/K	0.00055 1/K	0.000544 1/K	0.000537 1/K	0.000532 1/K
328.15 K	0.000585 1/K	0.000578 1/K	0.000573 1/K	0.000566 1/K	0.000557 1/K	0.00055 1/K	0.000544 1/K	0.000537 1/K	0.000533 1/K	0.000528 1/K
338.15 K	0.000582 1/K	0.000574 1/K	0.000569 1/K	0.00056 1/K	0.000553 1/K	0.000549 1/K	0.00054 1/K	0.000534 1/K	0.000529 1/K	0.000525 1/K
348.15 K	0.000579 1/K	0.000574 1/K	0.000566 1/K	0.000562 1/K	0.000554 1/K	0.000546 1/K	0.00054 1/K	0.000533 1/K	0.000527 1/K	0.000521 1/K
